Assay results reported in patent US12251447B2, “Combined formulation comprising four linked cytotoxic T lymphocyte (CTL) epitopes and a PD-1 pathway inhibitor and methods of use thereof to treat cancer” (Taiho Pharmaceutical Co., Ltd., priority 2018, dated 2025).
Ends that are not written are not given here.

Assays:
Format in all cases: in vivo, mouse
[1] = Example 6: rate of change in body weight; details: 18 days after cell transplantation vs Day 0
Method: (§1) Body weight was measured using an electronic balance for animals, and a rate of change in body weight (BWC) was calculated from the body weight measured on Day 0 (the day of grouping, BW0) and the body weight on 18 days after cell transplantation (BW) according to the following formula. Rate of change in body weight BWC (%)=(BW−BW0)/BW0×100
9-week-old B2 m^tm2(HLA-A24/H-2Db/B2M)Tai mice were randomly assigned to groups each involving 15 animals. The day of grouping was defined as Day 0.
This study was conducted in the same way as in Example 4 except that TPV07 or TPV08 was used instead of TPV06 as a peptide having 4 linked epitopes. TPV07 and TPV08, as in TPV06, were each prepared into 6 mg/mL using distilled water (Otsuka Pharmaceutical Factory Inc.) and then mixed with the equivalent amount of Montanide™ ISA 51 VG (SEPPIC) to prepare an emulsion, which was administered.

[2] = Example 5: rate of change in body weight; details: 18 days after cell transplantation vs Day 0
Method: as §1
9-week-old B2m^tm2(HLA-A24/H-2Db/B2M)Tai mice were randomly assigned to groups each involving 15 animals. The day of grouping was defined as Day 0.
This study was conducted in the same way as in Example 4 except that an anti-mouse PD-L1 antibody was used instead of the anti-mouse PD-1 antibody. GoInVivo™ Purified anti-mouse CD274 (B7-H1, PD-L1) (Clone: 10F.9G2, BioLegend, Inc.) was prepared as an anti-mouse PD-L1 antibody (anti-mPD-L1 Ab) into 1 mg/mL using D-PBS (FUJIFILM Wako Pure Chemical Corp.) immediately before administration. One week after final administration of the emulsions (Day 21), the anti-mouse PD-L1 antibody was intraperitoneally administered at 200 μg/body.

[3] = Example 4: rate of change in body weight; details: body weight 18 days after cell transplantation vs Day 0
Method: 8-week-old B2m^tm2(HLA-A24/H-2Db/B2M)Tai mice were randomly assigned to groups each involving 15 animals. The day of grouping was defined as Day 0. A 6 mg/mL peptide solution was prepared by dissolving a peptide having 4 linked epitopes TPV06 in distilled water (Otsuka Pharmaceutical Factory Inc.), and filled into the B Braun Injekt syringe (B. Braun Melsungen AG). After the equivalent amount of Montanide™ ISA 51 VG (SEPPIC) was filled into another syringe, these syringes were connected to each other via a connector, and the peptide solution was thoroughly mixed with Montanide™ ISA 51 VG to prepare an emulsion. Also, an emulsion of distilled water mixed with the equivalent amount of Montanide™ ISA 51 VG was prepared as a vehicle control. Each of these emulsions was subcutaneously administered weekly in amounts of 100 μL each in the vicinity of base of tail of each B2m^tm2(HLA-A24/H-2Db/B2M)Tai mouse, and administrations were carried out three times in total (Days 0, 7, and 14). […]
Body weight was measured using an electronic balance for animals, and a rate of change in body weight (BWC) was calculated from the body weight measured on Day 0 (the day of grouping, BW0) and the body weight on 18 days after cell transplantation (BW) according to the following formula. […]

## DYSARWNEIRRQIRPIFSNRRRVYDYNCHVDLRRASLDSDPWV [TPV07, PEP5-RR-PEP9-RR-PEP6-RR-PEP2]
[1]
  BWC (%) change in body weight: 18.9%

## DYSARWNEIRRQIRPIFSNRRRVYDYNCHVDLRRILEQSGEWWK [TPV08, PEP5-RR-PEP9-RR-PEP6-RR-PEP10]
[1]
  BWC (%) change in body weight: 21.7%

## DYSARWNEIRRQIRPIFSNRRRVYDYNCHVDLRRLLQAEAPRL [TPV06, PEP5-RR-PEP9-RR-PEP6-RR-PEP4]
[2]
  BWC (%) change in body weight: 21.9%
[3]
  BWC (%) rate of change in body weight: 27.0%
